Test system: PGE2 formation
Assay: Prostaglandin E2 formation caused by arachidonic acid (AA)
Assay type: cell-based
Details: for Prostaglandin E2: caused by AA

## COc1cc(CC(C)C(C)C(=O)c2ccc(O)c(OC)c2)ccc1O (centres unmarked) [Compound 1, cinnamophilin]
0.03-10 μM, AA
  PGE2 level: increase PGE2 and cAMP levels
Conc 0.01 μM
  Prostaglandin E2: 40 ± 10 ng/mL
Conc 0.03 μM
  Prostaglandin E2: 75 ± 15 ng/mL
Conc 0.1 μM
  Prostaglandin E2: 115 ± 15 ng/mL
Conc 0.3 μM
  Prostaglandin E2: 155 ± 29 ng/mL
Conc 1 μM
  Prostaglandin E2: 205 ± 19 ng/mL
Conc 3 μM
  Prostaglandin E2: 245 ± 20 ng/mL
Conc 10 μM
  Prostaglandin E2: 2665 ± 21 ng/mL

— patent publication US5853731A, “Thromboxane A2 Receptor antagonism and antioxidant action of cinnamophilin and its derivatives, their pharmaceutical compositions and uses” (National Science Council, priority 1997, dated 1998)
